“And” between values parts separate entries of the source, which are not always exact repeats. Equal entries are not always repeated.
Experiments:
[1] = target: T1, Adenosine receptor A3 (Homo sapiens, UniProt P0DMS8)
T1 sequence (P0DMS8 whole entry): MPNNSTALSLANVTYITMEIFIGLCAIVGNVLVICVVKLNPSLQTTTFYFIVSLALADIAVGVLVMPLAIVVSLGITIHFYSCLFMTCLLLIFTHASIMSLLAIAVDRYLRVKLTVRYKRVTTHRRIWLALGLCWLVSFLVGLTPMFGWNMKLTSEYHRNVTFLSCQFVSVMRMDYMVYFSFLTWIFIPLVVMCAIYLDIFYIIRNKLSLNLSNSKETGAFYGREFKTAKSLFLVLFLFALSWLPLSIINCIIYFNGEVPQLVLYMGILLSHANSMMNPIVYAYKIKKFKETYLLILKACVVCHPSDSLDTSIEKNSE

[2] = target: T2, Alpha-1A adrenergic receptor (Homo sapiens, UniProt P35348)
T2 sequence (P35348 whole entry): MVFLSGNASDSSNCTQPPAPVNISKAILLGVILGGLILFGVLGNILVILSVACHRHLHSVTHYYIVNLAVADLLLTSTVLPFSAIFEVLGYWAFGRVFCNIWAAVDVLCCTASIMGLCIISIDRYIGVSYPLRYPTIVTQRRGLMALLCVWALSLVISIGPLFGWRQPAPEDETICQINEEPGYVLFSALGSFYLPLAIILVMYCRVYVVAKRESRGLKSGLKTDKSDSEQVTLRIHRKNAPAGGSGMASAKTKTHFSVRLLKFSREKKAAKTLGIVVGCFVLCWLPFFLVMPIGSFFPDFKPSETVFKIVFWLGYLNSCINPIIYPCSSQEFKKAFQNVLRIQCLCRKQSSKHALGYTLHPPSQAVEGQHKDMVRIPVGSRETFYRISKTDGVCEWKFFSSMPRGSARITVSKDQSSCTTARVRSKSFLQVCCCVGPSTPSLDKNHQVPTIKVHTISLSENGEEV

[3] = target: Melanocortin receptor 4 (Homo sapiens, UniProt P32245)
[4] = target: Motilin receptor (Homo sapiens, UniProt O43193)
[5] = target: T3, Progesterone receptor (Homo sapiens, UniProt P06401); assay type: functional
T3 sequence (P06401 whole entry): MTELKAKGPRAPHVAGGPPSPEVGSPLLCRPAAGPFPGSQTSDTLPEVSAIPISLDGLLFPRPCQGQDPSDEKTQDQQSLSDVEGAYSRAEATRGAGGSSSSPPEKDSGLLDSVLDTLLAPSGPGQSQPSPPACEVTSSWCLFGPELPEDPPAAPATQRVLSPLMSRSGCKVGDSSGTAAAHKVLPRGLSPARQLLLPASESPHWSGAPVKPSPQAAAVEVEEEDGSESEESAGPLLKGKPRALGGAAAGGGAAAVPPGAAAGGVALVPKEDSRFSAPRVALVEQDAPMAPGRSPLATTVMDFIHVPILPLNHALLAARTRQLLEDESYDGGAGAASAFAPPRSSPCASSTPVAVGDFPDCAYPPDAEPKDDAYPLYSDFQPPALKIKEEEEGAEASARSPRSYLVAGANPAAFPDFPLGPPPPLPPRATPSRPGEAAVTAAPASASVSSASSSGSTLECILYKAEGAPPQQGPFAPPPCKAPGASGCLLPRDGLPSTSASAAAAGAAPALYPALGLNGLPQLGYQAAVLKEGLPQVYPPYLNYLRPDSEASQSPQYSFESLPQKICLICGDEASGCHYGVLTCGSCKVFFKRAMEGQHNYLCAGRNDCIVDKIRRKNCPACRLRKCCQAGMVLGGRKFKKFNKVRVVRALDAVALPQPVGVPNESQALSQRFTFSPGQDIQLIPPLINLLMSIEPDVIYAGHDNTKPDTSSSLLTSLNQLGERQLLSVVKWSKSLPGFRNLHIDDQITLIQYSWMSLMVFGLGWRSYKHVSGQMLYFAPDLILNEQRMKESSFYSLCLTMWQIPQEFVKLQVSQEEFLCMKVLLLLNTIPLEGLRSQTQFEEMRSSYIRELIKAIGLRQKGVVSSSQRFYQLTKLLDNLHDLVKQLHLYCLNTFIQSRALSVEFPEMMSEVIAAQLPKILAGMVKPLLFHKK

[6] = target: T4, Prostaglandin G/H synthase 1 (Rattus norvegicus, UniProt Q63921); assay type: functional
T4 sequence (Q63921 whole entry): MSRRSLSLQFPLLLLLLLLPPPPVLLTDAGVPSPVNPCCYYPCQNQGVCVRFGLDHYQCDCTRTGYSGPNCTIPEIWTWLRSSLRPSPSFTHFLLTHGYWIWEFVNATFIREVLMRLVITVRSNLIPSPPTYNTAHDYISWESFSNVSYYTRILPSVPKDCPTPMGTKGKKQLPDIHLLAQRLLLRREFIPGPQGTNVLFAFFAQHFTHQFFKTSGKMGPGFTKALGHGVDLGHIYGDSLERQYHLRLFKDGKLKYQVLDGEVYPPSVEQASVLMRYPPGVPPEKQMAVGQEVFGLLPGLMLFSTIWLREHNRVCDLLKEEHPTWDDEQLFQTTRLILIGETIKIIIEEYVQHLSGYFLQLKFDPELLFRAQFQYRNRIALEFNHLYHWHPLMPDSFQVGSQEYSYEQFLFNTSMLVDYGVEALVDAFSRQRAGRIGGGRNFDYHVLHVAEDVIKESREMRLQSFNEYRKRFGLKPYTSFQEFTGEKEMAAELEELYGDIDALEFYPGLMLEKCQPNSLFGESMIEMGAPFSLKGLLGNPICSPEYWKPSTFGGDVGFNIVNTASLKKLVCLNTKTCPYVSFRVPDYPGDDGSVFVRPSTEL

[7] = target: Mu-type opioid receptor (Homo sapiens, UniProt P35372)
[8] = target: T5, Muscarinic acetylcholine receptor M1 (Homo sapiens, UniProt P11229); assay type: functional
T5 sequence (P11229 whole entry): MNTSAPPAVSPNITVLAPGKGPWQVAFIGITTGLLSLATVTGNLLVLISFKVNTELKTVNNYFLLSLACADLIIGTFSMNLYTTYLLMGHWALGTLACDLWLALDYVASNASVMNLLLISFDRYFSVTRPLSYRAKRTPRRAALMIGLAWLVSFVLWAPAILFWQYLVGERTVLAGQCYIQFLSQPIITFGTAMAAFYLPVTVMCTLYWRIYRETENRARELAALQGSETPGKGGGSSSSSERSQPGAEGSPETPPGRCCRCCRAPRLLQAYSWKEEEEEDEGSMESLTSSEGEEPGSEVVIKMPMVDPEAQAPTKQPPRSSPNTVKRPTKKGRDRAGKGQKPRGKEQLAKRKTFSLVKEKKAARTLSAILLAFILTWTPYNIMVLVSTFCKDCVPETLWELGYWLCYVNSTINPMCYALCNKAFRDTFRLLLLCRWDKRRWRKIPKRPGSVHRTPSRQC

[9] = target: 5-hydroxytryptamine receptor 2A (Homo sapiens, UniProt P28223); assay type: functional, cell-based
Note: assay procedure not described here.

Sequence of 5-hydroxytryptamine receptor 2A (P28223 whole entry): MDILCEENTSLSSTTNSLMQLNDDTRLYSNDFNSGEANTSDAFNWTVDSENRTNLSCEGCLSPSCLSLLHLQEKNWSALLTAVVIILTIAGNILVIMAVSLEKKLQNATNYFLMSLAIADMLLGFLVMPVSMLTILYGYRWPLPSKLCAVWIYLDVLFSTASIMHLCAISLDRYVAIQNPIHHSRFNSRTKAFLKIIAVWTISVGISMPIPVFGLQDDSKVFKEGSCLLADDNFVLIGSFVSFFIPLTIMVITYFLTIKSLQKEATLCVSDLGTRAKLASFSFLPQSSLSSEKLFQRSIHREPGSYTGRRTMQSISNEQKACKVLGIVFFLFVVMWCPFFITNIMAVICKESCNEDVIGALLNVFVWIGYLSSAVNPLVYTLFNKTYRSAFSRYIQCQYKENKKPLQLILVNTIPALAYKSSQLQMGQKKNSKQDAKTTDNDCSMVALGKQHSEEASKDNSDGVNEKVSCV
Sequence of Motilin receptor (O43193 whole entry): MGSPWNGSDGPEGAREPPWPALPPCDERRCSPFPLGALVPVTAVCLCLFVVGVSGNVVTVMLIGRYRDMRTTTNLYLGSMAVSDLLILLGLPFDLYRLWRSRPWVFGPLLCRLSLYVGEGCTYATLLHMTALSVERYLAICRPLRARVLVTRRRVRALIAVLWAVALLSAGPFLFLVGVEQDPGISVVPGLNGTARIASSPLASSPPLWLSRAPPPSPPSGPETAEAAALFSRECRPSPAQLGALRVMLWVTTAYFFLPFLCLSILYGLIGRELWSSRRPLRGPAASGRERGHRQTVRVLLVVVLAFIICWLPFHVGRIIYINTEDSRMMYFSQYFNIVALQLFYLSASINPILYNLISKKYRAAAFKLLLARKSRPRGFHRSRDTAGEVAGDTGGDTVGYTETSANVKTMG
Sequence of Melanocortin receptor 4 (P32245 whole entry): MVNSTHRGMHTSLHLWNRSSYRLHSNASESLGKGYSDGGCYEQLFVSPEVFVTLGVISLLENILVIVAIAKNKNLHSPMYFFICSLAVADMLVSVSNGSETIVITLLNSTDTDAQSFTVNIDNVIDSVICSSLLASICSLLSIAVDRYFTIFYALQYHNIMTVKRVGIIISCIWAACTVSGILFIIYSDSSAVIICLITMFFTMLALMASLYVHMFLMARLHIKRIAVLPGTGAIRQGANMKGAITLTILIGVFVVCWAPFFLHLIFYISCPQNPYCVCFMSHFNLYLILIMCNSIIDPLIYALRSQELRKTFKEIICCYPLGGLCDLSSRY
Sequence of Mu-type opioid receptor (P35372 whole entry): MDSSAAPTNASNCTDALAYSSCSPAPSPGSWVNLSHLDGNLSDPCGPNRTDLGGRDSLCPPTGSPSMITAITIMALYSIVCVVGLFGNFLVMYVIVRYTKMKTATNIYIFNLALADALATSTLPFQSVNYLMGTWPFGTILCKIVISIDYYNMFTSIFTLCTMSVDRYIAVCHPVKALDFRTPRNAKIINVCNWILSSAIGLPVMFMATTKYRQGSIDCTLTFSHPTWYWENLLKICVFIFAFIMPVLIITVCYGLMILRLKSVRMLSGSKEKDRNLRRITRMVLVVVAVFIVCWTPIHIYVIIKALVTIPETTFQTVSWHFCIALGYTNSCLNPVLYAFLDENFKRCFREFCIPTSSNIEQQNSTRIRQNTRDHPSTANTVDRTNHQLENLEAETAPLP

Compound | AC50 [1] | AC50 [2] [µM] | AC50 [3] [µM] | AC50 [4] [µM] | AC50 [5] [µM] | AC50 [6] [µM] | AC50 [7] [µM] | AC50 [8] [µM] | AC50 [9] [µM]
CN1C(=O)OC(C)(C)C1=O [TRIMETHADIONE] | > 10 µM | > 10 | > 10 | > 10 | > 10 | > 10 | > 30 |  | 
CC1(C)O[C@@H]2C[C@H]3[C@@H]4CCC5=CC(=O)C=C[C@]5(C)[C@H]4[C@@H](O)C[C@]3(C)[C@]2(C(=O)CO)O1 [DESONIDE] | > 10 µM | > 10 | > 10 | > 10 |  | > 10 | > 30 | > 10 | > 10
CC=CC(=O)N(CC)c1ccccc1C | > 10 µM | > 10 | > 10 | > 10 | > 10 | > 10 | > 30 |  | 
NCC[C@H](O)C(=O)N[C@@H]1C[C@H](N)[C@@H](O[C@H]2O[C@H](CN)[C@@H](O)[C@H](O)[C@H]2O)[C@H](O)[C@H]1O[C@H]1O[C@H](CO)[C@@H](O)[C@H](N)[C@H]1O [AMIKACIN] | > 10 µM | > 10 | > 10 | > 10 | > 10 | > 10 | > 30 |  | 
C[C@](N)(Cc1ccc(O)c(O)c1)C(=O)O [METHYLDOPA] | > 30 µM | 7.1 | > 10 | > 10 | > 30 | > 30 | > 30 |  | 
C#C[C@]1(O)CC[C@H]2[C@@H]3CCc4cc(OC5CCCC5)ccc4[C@H]3CC[C@@]21C [QUINESTROL] | > 10 µM | > 10 | > 10 | > 10 |  | > 10 | > 30 | > 10 | > 10
CC[C@@H]1C(=O)OC[C@@H]1Cc1cncn1C [PILOCARPINE] | > 30 µM | > 10 | > 30 | > 10 |  | > 30 | > 30 |  | > 30
CN1CCN(CC/C=C2/c3ccccc3Sc3ccc(S(=O)(=O)N(C)C)cc32)CC1 [THIOTHIXENE] | > 30 µM | 0.0244 | > 30 | > 10 |  | > 30 | > 10 | > 10 | 
CCc1c(Cl)c(O)c(Cl)c(O)c1C(=O)O[C@H]1[C@H](O)[C@H](OC)[C@H](OC/C2=C\C=C\C[C@H](O)/C(C)=C/[C@H](CC)[C@@H](O[C@@H]3OC(C)(C)[C@@H](OC(=O)C(C)C)[C@H](O)[C@@H]3O)/C(C)=C/C(C)=C/C[C@@H]([C@@H](C)O)OC2=O)O[C@@H]1C [FIDAXOMICIN] | 17.1 µM and > 30 µM |  | > 30 | > 10 | > 30 | > 30 | > 10 | > 30 | 18
CCCc1nc(C(C)(C)O)c(C(=O)OCc2oc(=O)oc2C)n1Cc1ccc(-c2ccccc2-c2nnn[nH]2)cc1 [OLMESARTAN MEDOXOMIL] | > 10 µM | > 10 | > 50 | > 10 |  | > 30 | > 10 | > 10 | 
Cc1ccc(S(=O)(=O)NC(=O)NN2CC3CCCC3C2)cc1 (stereo not drawn) [GLICLAZIDE] | > 10 µM | > 30 | > 10 | > 10 | > 10 | > 10 | > 30 |  | 
CO[C@@H]1[C@@H](O[C@@H]2O[C@H](C)[C@@H](O[C@H]3C[C@@](C)(O)[C@@H](OC(=O)CC(C)C)[C@H](C)O3)[C@H](N(C)C)[C@H]2O)[C@@H](CC=O)C[C@@H](C)[C@@H](O)/C=C/C=C/C[C@@H](C)OC(=O)C[C@H]1OC(C)=O [JOSAMYCIN] | > 10 µM |  | > 10 | > 10 | > 10 | > 10 | > 30 | > 10 | > 10
O=C(NCCN1CCOCC1)c1ccc(Cl)cc1 [MOCLOBEMIDE] | > 10 µM | > 10 | > 10 | > 10 | > 10 | > 10 | > 30 |  | 
CC(C)Cn1cnc2c(N)nc3ccccc3c21 [IMIQUIMOD] | > 30 µM | 5.67 | > 10 | > 10 | > 10 | > 30 | > 30 |  | 
CCCN(CCC)C(=O)C(CCC(=O)O)NC(=O)c1ccccc1 (stereo not drawn) [PROGLUMIDE] | > 30 µM | > 30 | > 30 | > 30 | > 30 | > 30 | > 30 |  | 
CC(C)(C)c1cc(C(C)(C)C)c(NC(=O)c2c[nH]c3ccccc3c2=O)cc1O [IVACAFTOR] | 2.3 µM | > 10 | 25.6 | > 10 |  | > 30 | > 30 | > 10 | 
C[C@]12CC[C@H]3[C@@H](CCC4=CC(=O)CC[C@@]43C)[C@@H]1CC[C@@H]2O [TESTOSTERONE] | > 10 µM | > 30 | > 10 | > 10 |  | > 10 | > 30 |  | 
C#C[C@]1(O)CC[C@H]2[C@@H]3CCC4=Cc5oncc5C[C@]4(C)[C@H]3CC[C@@]21C [DANAZOL] | > 30 µM | > 10 | > 10 | > 10 |  |  | > 30 |  | 
CNS(=O)(=O)Cc1ccc2[nH]cc(CCN(C)C)c2c1 | > 30 µM | > 30 | > 30 | > 10 |  | > 30 | > 10 |  | 

Reference: ChEMBL document CHEMBL5291721, “A preclinical secondary pharmacology resource illuminates target-adverse drug reaction associations of marketed drugs” (Nat Commun, 2023)
